Source: patent publication US20230151003A1, “COMPOUNDS AND METHODS OF USE” (Exelixis, Inc., priority 2020, published 2023)

Tests used:
Assay type in all cases: cell-based
Met = Met (Homo sapiens, UniProt P08581); test: Met autophosphorylation ELISA in PC-3 cells; parameters: endogenous in cells; host or cells: PC-3 prostate cancer cells (ATCC #CRL-1435); conditions: Table 3 Cellular Activities, HGF-stimulated, phospho-Met ELISA, read-out: c-Met IC50
Description: PC-3 prostate cancer cells (ATCC #CRL-1435) were seeded at 4×10^4 cells/well onto 24-well plates (Greiner #662165), in DMEM (Thermo Fisher #11995-040) containing 10% FBS (Thermo Fisher #26140-079), 1% MEM NEAA (Thermo Fisher #11140-050), 1% GlutaMax (Thermo Fisher #35050-061), and 1% Penicillin Streptomycin (Thermo Fisher #15140-122). PC-3 cells were incubated at 37° C., 5% CO2 for 24 h and then starved for 3 h in serum-free medium. Test compounds were serially diluted to produce an 8-point dose curve in fresh serum-free medium to a final concentration of 0.3% DMSO (vehicle) and added to the cells and incubated for 1 h. Cells were then stimulated with 100 ng/mL recombinant human HGF (R&D Systems #294-HG-250) for 10 min, washed with cold PBS, and immediately lysed with 130 μL of cold 1× lysis buffer [20 mM Tris, 137 mM sodium chloride, 2 mM EDTA, 10% glycerol, 1% NP-40 alternative, 1 mM activated sodium orthovanadate, 1 mM PefaBloc SC (Sigma-Aldrich #11429868001), protease/phosphatase inhibitor tablet (Thermo Fisher #A32959)]. Lysates were clarified by centrifugation and 100 μL/well added into the PathScan phospho-Met (panTyr) Sandwich ELISA (Cell Signaling Technology #7333). Assay was performed according to manufacturer's instructions. Positive control wells (100% activity) contained HGF-stimulated, DMSO-treated cell lysates. Negative control wells (0% activity) contained HGF-stimulated, reference inhibitor-treated cell lysates. IC50 values were calculated by nonlinear regression analysis using a 4-parameter logistic curve fit in ActivityBase XE (IDBS).

Mer = target: T1, Mer (Homo sapiens, UniProt Q12866); test: Mer autophosphorylation ELISA in transient transfected 293A cells; conditions: Table 3 Cellular Activities; MERTK-transfected 293A cells, phospho-Mer ELISA
T1 construct: host or cells: 293A cells (Thermo Fisher #R70507)
T1 sequence (Q12866 21-999): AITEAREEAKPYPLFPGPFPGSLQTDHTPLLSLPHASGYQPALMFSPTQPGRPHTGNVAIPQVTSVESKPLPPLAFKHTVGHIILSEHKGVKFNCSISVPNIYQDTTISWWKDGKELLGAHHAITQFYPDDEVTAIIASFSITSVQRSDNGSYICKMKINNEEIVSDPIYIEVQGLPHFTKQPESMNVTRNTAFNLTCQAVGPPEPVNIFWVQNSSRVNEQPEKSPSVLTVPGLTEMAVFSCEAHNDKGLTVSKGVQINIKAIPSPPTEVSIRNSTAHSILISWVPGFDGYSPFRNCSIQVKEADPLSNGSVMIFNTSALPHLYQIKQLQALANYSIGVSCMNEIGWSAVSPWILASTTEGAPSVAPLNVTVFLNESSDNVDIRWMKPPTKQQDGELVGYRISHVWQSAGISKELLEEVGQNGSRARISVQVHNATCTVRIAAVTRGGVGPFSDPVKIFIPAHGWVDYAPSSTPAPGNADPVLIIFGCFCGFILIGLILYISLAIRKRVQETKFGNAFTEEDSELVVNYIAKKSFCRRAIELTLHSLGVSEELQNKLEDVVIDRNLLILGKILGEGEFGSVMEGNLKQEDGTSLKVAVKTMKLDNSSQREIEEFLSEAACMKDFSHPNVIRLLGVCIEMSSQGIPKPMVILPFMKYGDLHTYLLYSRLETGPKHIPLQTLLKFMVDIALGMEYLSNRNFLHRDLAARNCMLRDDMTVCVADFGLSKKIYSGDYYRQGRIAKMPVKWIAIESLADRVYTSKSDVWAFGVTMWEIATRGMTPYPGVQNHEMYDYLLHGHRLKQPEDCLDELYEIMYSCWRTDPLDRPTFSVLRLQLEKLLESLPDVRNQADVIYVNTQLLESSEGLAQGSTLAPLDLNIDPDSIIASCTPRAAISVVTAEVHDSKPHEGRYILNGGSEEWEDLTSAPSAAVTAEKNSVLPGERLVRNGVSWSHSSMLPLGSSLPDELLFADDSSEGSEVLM
Description: 293A cells (Thermo Fisher #R70507) were seeded at 1.5×10^6 cells/well onto 100 mm dish (Greiner #664169), in DMEM (Thermo Fisher #11995-040) containing 10% FBS (Thermo Fisher #26140-079), 1% MEM NEAA (Thermo Fisher #11140-050), 1% GlutaMax (Thermo Fisher #35050-061), and 1% Penicillin Streptomycin (Thermo Fisher #15140-122). 293A cells were incubated at 37° C., 5% CO2 for 24 h and then transfected with 6μg MERTK DNA (Genecopoeia #EX-Z8208-M02) using TransIT LT1 transfection reagent (Mirus-Bio #MIR2305). After 24 h incubation, the transfected 293A cells were seeded at 1×10^5 cells/well onto 96-well plates (Corning #3904) in DMEM growth medium overnight. Test compounds were serially diluted to produce an 8-point dose curve in fresh serum-free medium to a final concentration of 0.3% DMSO (vehicle) and added to the cells and incubated for 1 h. Cells were then immediately lysed with 150 μL of cold 1× lysis buffer […], 137 mM sodium chloride, 2 mM EDTA, 10% glycerol, 1% NP-40 alternative, 1 mM activated sodium orthovanadate, 1 mM PefaBloc SC (Sigma-Aldrich #11429868001), protease/phosphatase inhibitor tablet (Thermo Fisher #A32959)]. Lysates were clarified by centrifugation and 50 μL/well added into the human phospho-Mer DuoSet IC ELISA (R&D Systems #DYC2579-2). Assay was performed according to manufacturer's instructions and sample phospho-Mer concentrations were extrapolated using human phospho-Mer control (R&D Systems #841793) as a standard. Positive control wells (100% activity) contained DMSO-treated cell lysates. Negative control wells (0% activity) contained reference inhibitor-treated cell lysates. IC50 values were calculated by nonlinear regression analysis using a 4-parameter logistic curve fit in ActivityBase XE (IDBS).

KDR = KDR (Homo sapiens, UniProt P35968); test: KDR autophosphorylation ELISA in HUVEC cells; parameters: endogenous in cells; host or cells: HUVEC (Lonza #C2519A); conditions: Table 3 Cellular Activities, VEGF165-stimulated, phospho-KDR ELISA
Sequence of KDR (P35968 20-1356): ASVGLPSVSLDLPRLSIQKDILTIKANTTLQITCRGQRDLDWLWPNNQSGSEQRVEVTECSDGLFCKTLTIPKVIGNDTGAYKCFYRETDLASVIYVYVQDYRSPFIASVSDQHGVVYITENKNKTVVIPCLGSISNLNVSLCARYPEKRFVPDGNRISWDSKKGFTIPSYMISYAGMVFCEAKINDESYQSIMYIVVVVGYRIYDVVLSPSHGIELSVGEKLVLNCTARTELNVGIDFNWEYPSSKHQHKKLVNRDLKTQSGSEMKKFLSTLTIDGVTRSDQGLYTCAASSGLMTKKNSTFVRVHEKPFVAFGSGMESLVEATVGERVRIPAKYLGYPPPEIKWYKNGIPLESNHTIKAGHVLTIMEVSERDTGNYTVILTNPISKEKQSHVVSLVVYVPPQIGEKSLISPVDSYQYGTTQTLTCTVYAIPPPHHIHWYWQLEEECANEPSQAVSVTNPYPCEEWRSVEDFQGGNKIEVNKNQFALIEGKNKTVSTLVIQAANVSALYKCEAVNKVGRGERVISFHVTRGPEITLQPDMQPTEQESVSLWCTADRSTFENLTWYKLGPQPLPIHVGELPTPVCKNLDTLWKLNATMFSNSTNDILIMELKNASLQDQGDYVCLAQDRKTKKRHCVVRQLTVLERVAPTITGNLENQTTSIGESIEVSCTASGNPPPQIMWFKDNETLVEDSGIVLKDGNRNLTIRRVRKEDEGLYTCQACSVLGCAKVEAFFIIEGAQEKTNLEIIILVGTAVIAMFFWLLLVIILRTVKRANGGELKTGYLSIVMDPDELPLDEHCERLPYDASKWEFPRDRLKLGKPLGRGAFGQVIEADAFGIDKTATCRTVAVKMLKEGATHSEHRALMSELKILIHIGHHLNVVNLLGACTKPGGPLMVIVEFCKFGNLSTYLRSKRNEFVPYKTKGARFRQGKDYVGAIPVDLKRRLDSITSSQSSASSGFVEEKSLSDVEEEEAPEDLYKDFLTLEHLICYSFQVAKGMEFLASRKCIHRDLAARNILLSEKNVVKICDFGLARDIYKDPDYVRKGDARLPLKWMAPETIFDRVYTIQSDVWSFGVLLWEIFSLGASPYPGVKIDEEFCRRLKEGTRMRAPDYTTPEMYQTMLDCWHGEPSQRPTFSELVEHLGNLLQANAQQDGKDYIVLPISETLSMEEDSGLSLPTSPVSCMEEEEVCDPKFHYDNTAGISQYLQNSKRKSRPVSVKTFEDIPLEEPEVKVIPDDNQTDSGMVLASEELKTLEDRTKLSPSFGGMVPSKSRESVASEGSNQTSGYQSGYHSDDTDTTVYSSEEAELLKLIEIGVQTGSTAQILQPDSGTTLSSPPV
Description: Human umbilical vein endothelial cells or HUVEC (Lonza #C2519A) were seeded at 2×10^4 cells/well onto 96-well plates (Corning #3904), in EGM-2 growth medium (Lonza #CC-3162) containing 1% Penicillin Streptomycin (Thermo Fisher #15140-122). HUVEC cells were incubated at 37° C., 5% CO2 for 24 h and then starved for 24 h in serum-free EBM-2 basal medium (Lonza #CC-3156) containing 1% Penicillin Streptomycin. Test compounds were serially diluted to produce an 8-point dose curve in fresh serum-free medium to a final concentration of 0.3% DMSO (vehicle) and added to the cells and incubated for 1 h. Cells were then stimulated with 100 ng/mL recombinant human VEGF165 (R&D Systems #293-VE-500) for 5 min, washed with cold PBS, and immediately lysed with 130 μL of cold 1× lysis buffer [20 mM Tris, 137 mM sodium chloride, 2 mM EDTA, 10% glycerol, 1% NP-40 alternative, 1 mM activated sodium orthovanadate, 1 mM PefaBloc SC (Sigma-Aldrich #11429868001), protease/phosphatase inhibitor tablet (Thermo Fisher #A32959)]. Lysates were collected and 100 μL/well added into the human phospho-KDR DuoSet IC ELISA (R&D Systems #DYC1766-2). Assay was performed according to manufacturer's instructions and sample phospho-KDR concentrations were extrapolated using human phospho-KDR control (R&D Systems #841421) as a standard. Positive control wells (100% activity) contained VEGF165-stimulated, DMSO-treated cell lysates. Negative control wells (0% activity) contained non-stimulated cell lysates. IC50 values were calculated by nonlinear regression analysis using a 4-parameter logistic curve fit in ActivityBase XE (IDBS).

Sequence of Met (P08581 25-1390): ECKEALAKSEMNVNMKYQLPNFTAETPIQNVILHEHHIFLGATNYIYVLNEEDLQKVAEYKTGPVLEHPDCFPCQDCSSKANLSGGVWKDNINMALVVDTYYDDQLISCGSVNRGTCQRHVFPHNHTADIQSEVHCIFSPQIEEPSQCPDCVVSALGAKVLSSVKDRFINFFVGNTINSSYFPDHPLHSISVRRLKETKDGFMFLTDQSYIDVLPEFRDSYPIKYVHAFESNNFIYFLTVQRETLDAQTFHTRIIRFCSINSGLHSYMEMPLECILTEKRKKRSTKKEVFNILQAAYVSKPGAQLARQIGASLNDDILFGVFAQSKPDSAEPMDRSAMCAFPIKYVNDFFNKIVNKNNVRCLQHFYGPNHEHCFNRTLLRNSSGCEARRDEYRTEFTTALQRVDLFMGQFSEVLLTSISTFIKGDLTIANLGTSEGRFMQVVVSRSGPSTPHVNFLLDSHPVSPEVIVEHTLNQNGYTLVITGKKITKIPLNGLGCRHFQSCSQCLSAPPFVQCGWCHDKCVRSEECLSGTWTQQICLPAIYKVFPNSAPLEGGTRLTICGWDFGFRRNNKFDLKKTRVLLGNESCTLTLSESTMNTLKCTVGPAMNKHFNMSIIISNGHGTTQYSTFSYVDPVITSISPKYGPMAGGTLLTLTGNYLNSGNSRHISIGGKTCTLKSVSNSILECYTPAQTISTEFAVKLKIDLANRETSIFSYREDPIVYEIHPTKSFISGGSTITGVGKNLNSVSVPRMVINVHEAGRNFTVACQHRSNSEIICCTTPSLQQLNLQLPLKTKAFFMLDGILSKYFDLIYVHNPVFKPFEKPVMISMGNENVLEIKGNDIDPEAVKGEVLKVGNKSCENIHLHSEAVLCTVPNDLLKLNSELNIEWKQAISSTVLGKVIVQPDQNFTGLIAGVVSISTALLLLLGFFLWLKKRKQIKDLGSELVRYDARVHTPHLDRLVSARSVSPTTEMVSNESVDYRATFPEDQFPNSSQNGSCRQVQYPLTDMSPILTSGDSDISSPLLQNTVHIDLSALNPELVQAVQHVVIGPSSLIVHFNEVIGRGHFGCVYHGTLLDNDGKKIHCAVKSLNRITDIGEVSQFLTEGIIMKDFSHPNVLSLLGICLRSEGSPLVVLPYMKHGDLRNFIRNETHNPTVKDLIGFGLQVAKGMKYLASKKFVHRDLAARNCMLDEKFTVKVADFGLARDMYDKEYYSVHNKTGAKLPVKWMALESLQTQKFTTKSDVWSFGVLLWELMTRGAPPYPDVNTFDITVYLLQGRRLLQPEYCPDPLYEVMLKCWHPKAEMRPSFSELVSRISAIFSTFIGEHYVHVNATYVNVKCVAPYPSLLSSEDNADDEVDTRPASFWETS

Row | Structure (SMILES) | IC50 (Met) [µM] | IC50 (Mer) [µM] | IC50 (KDR) [µM]
1 | COc1cc2nccc(Oc3ccc(NC(=O)c4c(C)n(CC(F)F)cc(-c5ccco5)c4=O)cc3F)c2nc1OC [Compound 275, 1-(2,2-Difluoroethyl)-N-[4-[(6,7-dimethoxy-1,5-naphthyridin-4-yl)oxy]-3-fluorophenyl]-5-(furan-2-yl)-2-methyl-4-oxopyridine-3-carboxamide] | ≤ 0.1 | ≤ 0.1 | 0.3 to 1
2 | CCc1c(C(=O)Nc2ccc(Oc3ccnc4cc(OCCOC)c(OC)nc34)c(F)c2)c(=O)c(-c2ccco2)c(C)n1C [Compound 326, 2-Ethyl-N-[3-fluoro-4-[[6-methoxy-7-(2-methoxyethoxy)-1,5-naphthyridin-4-yl]oxy]phenyl]-5-(furan-2-yl)-1,6-dimethyl-4-oxopyridine-3-carboxamide] | ≤ 0.1 | ≤ 0.1 | ≤ 0.1
3 | COCc1nc(C)c(-c2cccc(C)n2)c(O)c1C(=O)Nc1ccc(Oc2ccnc3cc(OC)c(OC)nc23)c(F)c1 [Compound 197, N-[4-[(6,7-Dimethoxy-1,5-naphthyridin-4-yl)oxy]-3-fluorophenyl]-4-hydroxy-2-(methoxymethyl)-6-methyl-5-(6-methylpyridin-2-yl)pyridine-3-carboxamide] | ≤ 0.1 | ≤ 0.1 | ≤ 0.1
4 | COc1cnc2c(Oc3ccc(NC(=O)c4c(C)n(C)c(C)c(-c5ccco5)c4=O)cc3)ccnc2c1 [Compound 161, 5-(Furan-2-yl)-N-[4-[(7-methoxy-1,5-naphthyridin-4-yl)oxy]phenyl]-1,2,6-trimethyl-4-oxopyridine-3-carboxamide] | ≤ 0.1 | ≤ 0.1 | 0.3 to 1
5 | COCc1nc(C)c(-c2ccnc(C)c2)c(O)c1C(=O)Nc1ccc(Oc2ccnc3cc(OC)c(OC)nc23)c(F)c1 [Compound 198, N-[4-[(6,7-Dimethoxy-1,5-naphthyridin-4-yl)oxy]-3-fluorophenyl]-4-hydroxy-2-(methoxymethyl)-6-methyl-5-(2-methylpyridin-4-yl)pyridine-3-carboxamide] | ≤ 0.1 | ≤ 0.1 | ≤ 0.1
6 | COc1cc2nccc(Oc3ccc(NC(=O)c4c(C)ncc(-c5ccc(C=O)o5)c4O)cc3F)c2nc1OC [Compound 121, N-[4-[(6,7-Dimethoxy-1,5-naphthyridin-4-yl)oxy]-3-fluorophenyl]-5-(5-formylfuran-2-yl)-4-hydroxy-2-methylpyridine-3-carboxamide] | 0.1 to 0.3 | ≤ 0.1 | ≤ 0.1
7 | COCCOc1cnc2c(Oc3ccc(NC(=O)c4c(C)n(C)c(C)c(-c5ccco5)c4=O)cc3F)ccnc2c1 [Compound 266, N-[3-Fluoro-4-[[7-(2-methoxyethoxy)-1,5-naphthyridin-4-yl]oxy]phenyl]-5-(furan-2-yl)-1,2,6-trimethyl-4-oxopyridine-3-carboxamide] | ≤ 0.1 | ≤ 0.1 | 0.3 to 1
8 | CCc1c(C(=O)Nc2ccc(Oc3ccnc4cc(OC)c(OC)nc34)cc2)c(=O)c(-c2ccco2)c(C)n1C [Compound 325, N-[4-[(6,7-Dimethoxy-1,5-naphthyridin-4-yl)oxy]phenyl]-2-ethyl-5-(furan-2-yl)-1,6-dimethyl-4-oxopyridine-3-carboxamide] | 0.3 to 1 | ≤ 0.1 | 0.3 to 1
9 | COc1cc2nccc(Oc3ccc(NC(=O)c4c(C)ncc(-c5ccoc5)c4O)cc3F)c2nc1OC [Compound 122, N-[4-[(6,7-Dimethoxy-1,5-naphthyridin-4-yl)oxy]-3-fluorophenyl]-5-(furan-3-yl)-4-hydroxy-2-methylpyridine-3-carboxamide] | ≤ 0.1 | ≤ 0.1 | ≤ 0.1
10 | COCCOc1cnc2c(Oc3ccc(NC(=O)c4c(C)n(C)c(C)c(-c5coc6ccccc56)c4=O)cc3F)ccnc2c1 [Compound 265, 5-(1-Benzofuran-3-yl)-N-[3-fluoro-4-[[7-(2-methoxyethoxy)-1,5-naphthyridin-4-yl]oxy]phenyl]-1,2,6-trimethyl-4-oxopyridine-3-carboxamide] | 0.3 to 1 | 0.3 to 1 | 0.3 to 1
